In the test the target is Integrase (Human immunodeficiency virus 1, UniProt Q7ZJM1). Briefly: ChEBML_90573. From the text: Inhibitory activity against HIV-1 integrase
Sequence of Integrase (Q7ZJM1 whole entry): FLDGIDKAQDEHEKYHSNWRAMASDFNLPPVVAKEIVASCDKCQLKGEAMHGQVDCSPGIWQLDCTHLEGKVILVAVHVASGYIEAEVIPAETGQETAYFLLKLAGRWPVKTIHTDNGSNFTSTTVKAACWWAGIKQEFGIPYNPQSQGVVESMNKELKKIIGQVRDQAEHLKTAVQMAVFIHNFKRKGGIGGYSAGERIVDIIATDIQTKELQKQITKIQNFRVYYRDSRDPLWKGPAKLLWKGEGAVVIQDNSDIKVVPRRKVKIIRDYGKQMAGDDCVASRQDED

Turning to `CCCCC(C)/C=C(\C)C(=O)O[C@@H]1CC[C@H](C(=O)O)[C@@]2(C)CC(=C(C)C=O)C(=O)C=C12` (stereo partly drawn) [(1S,4R,7S,8aR)-4-((E)-2,4-Dimethyl-oct-2-enoyloxy)-7-(1-formyl-vinyl)-8a-methyl-6-oxo-1,2,3,4,6,7,8,8a-octahydro-naphthalene-1-carboxylic acid], it took 3 µM to reach half-maximal inhibition (IC50).

The IC50 is the concentration that inhibits the measured activity by half. A low value points to greater potency.

Values taken from BindingDB's records for doi:10.1016/s0960-894x(99)00666-6 (Merck Research Laboratories, 2000).
